Laboratory results taken from PMC5378937 (The Journal of Pharmacology and Experimental Therapeutics, 2016).
Changes are numbered by the printed parent chain. “Also recorded” adds a separate entry of the source. Where two headings read alike, the source gives them in different places.

How the values were obtained:
[1] = target: T1, 5-HT3 receptor (Homo sapiens, UniProt P46098); experiment: Dual application with bilobalide or diltiazem (allotopic vs syntopic inhibition), oocytes; type: cell-based; parameters: expressed in transfected cells; host or cells: Xenopus oocytes injected with cRNA transcribed from pGEMHE; conditions: 100 µM 5-HT
T1 sequence (P46098 24-478): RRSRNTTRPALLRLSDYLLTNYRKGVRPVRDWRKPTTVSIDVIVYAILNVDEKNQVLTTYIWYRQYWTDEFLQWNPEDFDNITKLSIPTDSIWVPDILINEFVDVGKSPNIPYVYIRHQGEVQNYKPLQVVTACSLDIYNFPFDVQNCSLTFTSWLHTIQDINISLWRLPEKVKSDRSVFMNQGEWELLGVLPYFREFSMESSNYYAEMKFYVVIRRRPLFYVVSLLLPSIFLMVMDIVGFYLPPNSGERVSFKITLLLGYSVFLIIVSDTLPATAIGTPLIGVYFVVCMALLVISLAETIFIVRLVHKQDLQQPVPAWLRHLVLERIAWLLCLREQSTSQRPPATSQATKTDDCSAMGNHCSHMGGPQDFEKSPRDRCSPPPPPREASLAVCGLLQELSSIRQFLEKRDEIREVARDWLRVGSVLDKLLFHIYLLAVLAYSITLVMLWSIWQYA
Procedure: Dual application studies were performed as previously described ([Jarvis and Thompson, 2013]). This is a simple method to determine whether two channel blockers share the same binding site (syntopic inhibition) or bind to separate locations (allotopic inhibition). […] Concentrations of the test compounds, BB and DTZ, were selected such that they caused approximately 62% inhibition when used alone. From the results of these experiments, predicted levels of inhibition were derived for both allotopic and syntopic modes of action. These predictions were compared with data obtained experimentally using the same concentrations of the inhibitors acting together. For each oocyte, the change in the amplitude of the 5-HT response over time was monitored and taken into account. Inhibition by drugs was quantified in relation to interpolated control responses for each time point.
The dual application measurements were compared statistically with allotopic and syntopic predictions using a two-way analysis of variance in which the oocyte was included as a random effect (SPSS Statistics 20; IBM, Armonk, NY). Post-hoc testing was with Dunnett’s method, comparing the measured data to each of the predictions.

[2] = target: T2, human 5-HT3 receptors (5-HT3A) (Homo sapiens, UniProt P46098); experiment: Two-electrode voltage clamp of 5-HT-evoked currents in Xenopus oocytes expressing 5-HT3 receptors, nonlinear mixed-effects modeling
T2 sequence (P46098 24-478): T1 sequence (P46098 24-478)
Procedure: 5-HT3A subunit cDNA was cloned into pGEMHE for oocyte expression. cRNA was transcribed in vitro from a linearized plasmid cDNA template using the mMessage mMachine Ultra T7 Transcription kit (Ambion, Austin, TX). Stage V and VI oocytes were injected with 50 nl of 100–500 ng µl^−1 cRNA (5–25 ng injected), and currents were recorded 1–4 days postinjection.
Specifically, NONMEM allows the modeling of the relationship between drug and response, and importantly, the random between-oocyte variance, which is considerable. NONMEM enabled a single unified model to be created that included all electrophysiological agonist and antagonist data. […] The ability to allow for between-oocyte variance enabled raw peak currents to be analyzed, rather than normalized values. Normalization can obscure relationships between parameters, resulting in inaccurate and imprecise estimates of drug effects. Differences in peak currents and agonist potency between different oocytes were modeled with population variances (ω^2) associated with model parameters.
A structural model defined the relationship between the independent variables (i.e., agonist and antagonist concentrations) and the peak current (dependent variable).
The effect of time on the agonist response was modeled linearly as:(2) [drawing 2] where Max0 = as in eq. 1; MaxT = PRED when [A] = ∞ at time T; T = time (hours) from start of individual experiment; and nT = change in response per hour expressed as a proportion of the response at T = 0 (nT = 0 represents no change; nT = −0.1 represents a reduction of 10%, and nT = 0.1 represents an increase of 10% per hour).
The effect of the compounds on MaxT was modeled as follows:(3) [drawing 3] where MaxT = PRED when [A] = ∞ in the absence of drug D at time T (eq. 2); Max(D) = PRED when [A] = ∞ in the presence of drug D at time T; [D] = concentration of inhibitor drug; pIC50 = −log10[D] in the presence of which Max(D) = MaxT/2; and nH(D) = inhibitor Hill coefficient. (This model assumes that, when [D] = ∞, PRED = 0.)

[3] = target: T1, 5-HT3 receptor; experiment: Flow cytometry competition binding with 10 nM fluorescent granisetron (G-FL) in HEK293 cells; parameters: expressed in transfected cells; host or cells: HEK293 cells, transient transfection with pcDNA3.1 construct; conditions: concentrations up to 1 mM, n = 3
Procedure: 5-HT3A subunit cDNA was cloned into pcDNA3.1 for expression in HEK293 cells (ThermoFisher Scientific, Waltham, MA). Cells were transiently transfected with this cDNA using polyethyleneimine (25 kDa, linear, powder; Polysciences Inc., Eppelheim, Germany). Thirty microliters of polyethyleneimine (1 mg ml^−1), 5 μg of cDNA, and 1 ml of DMEM were incubated for 10 minutes at room temperature, added dropwise to a 90-mm plate of 70–80% confluent HEK293 cells, and incubated for 2–3 days before use.
HEK293 cells expressing the 5-HT3 receptor were grown in monolayers and harvested from a 90-mm culture dish using 10 ml of Trypsin-EDTA (Sigma-Aldrich) for 10 minutes at 37°C. Digestion was terminated by the addition of 25 ml DMEM + 10% fetal bovine serum, and cells were pelleted at low speed for 2 minutes. […] Competition binding was measured by incubating HEK293 cells with different concentrations of nonlabeled ligands and 10 nM fluorescent granisetron (G-FL). […] The geometric mean was measured at each concentration of test compound and fitted to eq. 1 (see the following section) using a least-squares method (GraphPad Prism v4; GraphPad Software, La Jolla, CA).

[4] = target: T3, 5-HT3AT6'S receptors (Homo sapiens, UniProt P46098, T279S); experiment: Two-electrode voltage clamp in oocytes expressing the 5-HT3AT6'S receptor mutant; type: cell-based; conditions: for ΔpEC50 (ΔpIC50 for inhibitors, T6'S vs wild-type): 2 µM 5-HT; for IC50: read-out: pEC50 (pIC50 for inhibitors) at T6'S mutant (converted)
T3 construct: expressed in transfected cells; host or cells: Xenopus oocytes
T3 sequence (P46098 24-478 T279S): T1 sequence (P46098 24-478) with T256S
Procedure: Microelectrodes were fabricated from borosilicate glass (GC120TF-10; Harvard Apparatus, Edenbridge, Kent, UK) using a two-stage horizontal pull (P-97; Sutter Instrument Company, Novato, CA) and filled with 3 M KCl. Pipette resistances ranged from 0.8 to 2.0 MΩ. Oocytes were placed in a perfusion chamber made from 2-mm-wide × 30-mm-long silicon tubing that was cut in half lengthways (total volume ∼0.1 ml), and were perfused with ND96 at a rate of 12 ml min^−1. Drug application was via a simple gravity-fed system calibrated to run at the same rate. […] A 3-minute wash was used between compound applications. Oils were dissolved in buffer containing 1% DMSO, freshly prepared each day, and constantly stirred during the experiments.
The effects of the compounds on 5-HT3AT6'S receptors were also evaluated. […] Parameters were incorporated into the model that defined changes in pEC50, pIC50, Max0, and pA2 values for 5-HT3AT6'S receptors. These parameters were statistically evaluated as described earlier.
Parameters were included in the model that allowed differences in agonist and inhibitory effects to be quantified and evaluated.

[5] = target: 5-HT3 receptors; parameters: method as in Ashoor et al., 2013; conditions: ref Ashoor et al., 2013; cited from earlier work
[6] = system: 5-HT-induced contractions in rat trachea; experiment: 5-HT-induced contraction of isolated rat trachea; conditions: granisetron 10 µM
Procedure: The trachea was removed from male Wistar albino rats (250–350 g), cut into 2-cm lengths, and mounted on a force transducer with a resting tension of 1.0 g in a 10-ml water-jacketed organ bath containing modified Tyrode’s solution (136 mM NaCl, 5 mM KCl, 0.98 mM MgCl2, 0.36 mM NaH2PO4, 2 mM CaCl2, 11.9 mM NaHCO3, 5.5 mM glucose, pH 7.4) continuously aerated with 95% O2/5% CO2 and kept at 37°C. Contractile responses were recorded using a force transducer (model FT03; Grass Technologies, Quincy, MA) connected to a PC-based data acquisition system (Dataq, PM-1000; DATAQ Instruments Inc., Akron, OH). The experiments were conducted after an equilibration period of 60 minutes and three successive similar contractile responses. Experiments were approved by the local animal ethics committee (protocol number 00084/2014.2).

[7] = system: 5-HT-evoked contractions of guinea pig ileum; experiment: 5-HT-evoked contraction of isolated guinea pig ileum
Procedure: Guinea pig ileum was obtained from adult male guinea pigs (200–300 g). The ileum was cut into 1-cm lengths and mounted longitudinally to a force transducer with a resting tension of 0.5 g in a 10-ml water-jacketed organ bath containing Krebs’ buffer (118 mM NaCl, 4.7 mM KCl, 1.2 mM MgSO4, 1.25 mM CaCl2, 11 mM glucose, 10 mM HEPES, pH 7.2) continuously aerated with 95% O2/5% CO2 and kept at 37°C. The ileum segments were allowed to equilibrate for 10 minutes before the experiments were started, and contractile responses were recorded using LabChart 6 (ADInstruments Ltd., Oxford, UK). […] Following drug applications, the organ bath was flushed twice with fresh Krebs’ solution, and the ileum was allowed to recover for 10 minutes prior to the next application. […] Experiments involving animals were approved by the University of Cambridge Animal Welfare and Ethical Review Body (reference: PHARM 004/15).

[8] = IC50 (inhibition of 5-HT-evoked currents), wild-type, from nonlinear mixed-effects model
[9] = IC50 derived from normalized data, wild-type, normalized data instead of mixed-effects model
[10] = wild-type, population parameter estimate
[11] = wild-type, population parameter estimate, listed as Eucalyptol

Measured dual inhibition with diltiazem compared with predictions [1]	IC50 [2, 8]	IC50 [2, 9]	nH (inhibitor Hill coefficient) [2, 10]	Reduction of inhibitory potency compared with wild-type receptors [4]	ΔpEC50 (ΔpIC50 for inhibitors, T6'S vs wild-type) [4]	IC50 [4]	SMILES	Measured dual inhibition with bilobalide compared with predictions [1]	Effect on agonist (5-HT) pEC50 (interpretation of nG hypothesis test) ([2]; wild-type)	Competition with G-FL binding [3]	Agonist action when applied alone [4]	other results
greater than the allotopic prediction	141 µM	83 µM	2.2	approximately 2 fold	−0.34 ± 0.04	309 µM	C=CC(C)(O)CCC=C(C)C (centres unmarked) [linalool]	greater than the allotopic prediction	No/weak evidence that linalool changes agonist pEC50	unaffected; also recorded: no competition	did not evoke currents; also recorded: no agonist action	nH (inhibitor Hill coefficient) ([2]; wild-type, population parameter estimate, listed as Linalool): 2.19 ± 0.26
greater than the allotopic prediction	258 µM	174 µM	1.0	approximately 2 fold	−0.45 ± 0.22	724 µM	CC12CCC(CC1)C(C)(C)O2 [eucalyptol]	–	Strong evidence that eucalyptol changes agonist pEC50	unaffected; also recorded: no competition	did not evoke currents; also recorded: no agonist action	Kb [2]: 813 µM; nS (Schild coefficient) [2, 10]: 1.7; pA2 (shift in agonist pEC50) [2, 10]: 3.09; nH (inhibitor Hill coefficient) [2, 11]: 1.04 ± 0.11; nS (Schild coefficient) [2, 11]: 1.70 ± 0.24; Effect on 5-HT pEC50 at T6'S [4]: did not alter the 5-HT pEC50
–	–	–	–	–	–	–	CC1CCC(C(C)C)C(O)C1 (centres unmarked) [menthol]	–	–	–	–	IC50 [5]: 163 µM
–	–	–	–	–	–	–	CN1C2CCCC1CC(NC(=O)c1nn(C)c3ccccc13)C2 (centres unmarked) [granisetron]	–	–	–	–	Effect on 5-HT-induced contractions [6]: substantially inhibited; Effect on 5-HT-evoked contractions [7]: inhibited
–	–	–	–	–	–	–	NCCc1c[nH]c2ccc(O)cc12 [5-HT, 5-hydroxytryptamine, reference compound]	–	–	–	–	5-HT nH (agonist Hill coefficient) ([2]; wild-type): 2.94 ± 0.13; Max (maximal 5-HT peak current) [2, 10]: 4.94 ± 0.64 µA; Increase in 5-HT sensitivity in the T6'S mutant [4]: 2 fold; ΔpEC50 (T6'S vs wild-type) ([4]; agonist 5-HT): 0.35 ± 0.07

SMILES	Measured dual inhibition with diltiazem compared with predictions [1]	IC50 [2, 8]	IC50 [2, 9]	nH (inhibitor Hill coefficient) [2, 10]	Reduction of inhibitory potency compared with wild-type receptors [4]	ΔpEC50 (ΔpIC50 for inhibitors, T6'S vs wild-type) [4]	IC50 [4]	Measured dual inhibition with bilobalide compared with predictions [1]	Effect on agonist (5-HT) pEC50 (interpretation of nG hypothesis test) ([2]; wild-type)	Competition with G-FL binding [3]	Agonist action when applied alone [4]	other results
CC(C)=CCCC(C)=CC=O (mixture of isomers) [citral]	no different from the allotopic predictions	120 µM	98 µM	1.3	approximately 2 fold	−0.36 ± 0.10	282 µM	no different from the allotopic predictions	–	unaffected; also recorded: no competition	did not evoke currents; also recorded: no agonist action	Effect on agonist (5-HT) pEC50 (interpretation of nG hypothesis test) [2]: No evidence that citral changes agonist pEC50; nH (inhibitor Hill coefficient) ([2]; wild-type, population parameter estimate, listed as Citral): 1.34 ± 0.08
